ChEMBL document CHEMBL1134041, “Imide and lactam derivatives of N-benzylpyroglutamyl-L-phenylalanine as VCAM/VLA-4 antagonists” (Bioorg Med Chem Lett, 2001)

Columns and labels:
Integrin alpha-4/beta-1 [1] = biological target: T1, Integrin alpha-4/beta-1 (Homo sapiens, UniProt P05556+P13612); assay: Inhibition of human VCAM binding to VLA-4 of Ramos cells in ELISA; type: cell-based
Integrin alpha-4/beta-1 [2] = biological target: T1, Integrin alpha-4/beta-1; assay: Inhibition of human VCAM and Ramos cell VLA-4 interaction; type: cell-based

T1 sequence (P05556 whole entry): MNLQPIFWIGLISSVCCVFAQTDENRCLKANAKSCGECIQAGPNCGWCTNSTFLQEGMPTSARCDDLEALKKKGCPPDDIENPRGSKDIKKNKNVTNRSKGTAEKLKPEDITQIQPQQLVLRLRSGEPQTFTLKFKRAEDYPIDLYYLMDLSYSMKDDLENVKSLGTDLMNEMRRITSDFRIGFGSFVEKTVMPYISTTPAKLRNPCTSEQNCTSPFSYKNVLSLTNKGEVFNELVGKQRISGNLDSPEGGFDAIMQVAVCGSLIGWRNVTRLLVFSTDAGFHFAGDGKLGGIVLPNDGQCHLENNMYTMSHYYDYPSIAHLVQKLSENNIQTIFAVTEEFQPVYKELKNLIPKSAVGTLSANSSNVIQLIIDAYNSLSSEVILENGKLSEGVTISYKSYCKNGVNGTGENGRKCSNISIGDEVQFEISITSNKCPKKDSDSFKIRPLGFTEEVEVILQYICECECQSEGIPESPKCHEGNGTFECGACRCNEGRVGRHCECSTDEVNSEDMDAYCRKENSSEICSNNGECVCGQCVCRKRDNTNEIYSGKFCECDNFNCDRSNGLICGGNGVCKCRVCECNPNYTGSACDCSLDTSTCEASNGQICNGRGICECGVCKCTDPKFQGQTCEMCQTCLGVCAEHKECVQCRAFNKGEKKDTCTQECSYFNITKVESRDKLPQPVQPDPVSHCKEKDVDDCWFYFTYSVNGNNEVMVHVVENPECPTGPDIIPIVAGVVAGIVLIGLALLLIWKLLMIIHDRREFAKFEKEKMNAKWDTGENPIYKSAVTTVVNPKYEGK
T1 sequence (P13612 whole entry): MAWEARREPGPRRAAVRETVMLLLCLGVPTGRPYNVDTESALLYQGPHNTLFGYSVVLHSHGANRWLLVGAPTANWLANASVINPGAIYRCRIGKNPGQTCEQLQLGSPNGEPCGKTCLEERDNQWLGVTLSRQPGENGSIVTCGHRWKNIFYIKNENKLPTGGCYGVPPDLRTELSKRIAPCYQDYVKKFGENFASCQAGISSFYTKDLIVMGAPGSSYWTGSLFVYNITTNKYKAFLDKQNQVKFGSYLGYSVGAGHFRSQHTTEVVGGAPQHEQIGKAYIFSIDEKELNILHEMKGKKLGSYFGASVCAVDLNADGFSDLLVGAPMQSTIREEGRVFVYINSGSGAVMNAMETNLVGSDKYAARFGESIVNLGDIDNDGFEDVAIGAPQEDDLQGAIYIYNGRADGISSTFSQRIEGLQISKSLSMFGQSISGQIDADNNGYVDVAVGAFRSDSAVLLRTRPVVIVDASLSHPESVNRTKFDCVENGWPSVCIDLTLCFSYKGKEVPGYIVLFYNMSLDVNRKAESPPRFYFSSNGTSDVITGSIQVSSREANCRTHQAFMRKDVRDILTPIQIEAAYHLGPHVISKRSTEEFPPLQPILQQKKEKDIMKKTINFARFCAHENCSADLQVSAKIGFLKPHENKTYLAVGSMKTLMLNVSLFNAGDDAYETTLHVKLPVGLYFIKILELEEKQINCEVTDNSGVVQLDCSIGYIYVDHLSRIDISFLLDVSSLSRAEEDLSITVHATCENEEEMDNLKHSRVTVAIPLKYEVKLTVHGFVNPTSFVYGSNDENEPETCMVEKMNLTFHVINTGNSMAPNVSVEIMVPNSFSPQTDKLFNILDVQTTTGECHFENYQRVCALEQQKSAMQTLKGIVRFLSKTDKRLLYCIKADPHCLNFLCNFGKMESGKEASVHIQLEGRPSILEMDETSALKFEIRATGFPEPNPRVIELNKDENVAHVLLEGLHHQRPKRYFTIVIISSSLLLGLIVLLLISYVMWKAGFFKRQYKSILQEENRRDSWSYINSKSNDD

Structure (SMILES) | IC50 (Integrin alpha-4/beta-1 [1]) [nM] | IC50 (Integrin alpha-4/beta-1 [2]) [nM]
O=C(O)[C@H](Cc1ccc(N2C(=O)CC(c3ccccc3)C2=O)cc1)NC(=O)[C@@H]1CCC(=O)N1Cc1ccccc1 (stereo not given in full) | 1.7 | 92
O=C(O)[C@H](Cc1ccc(N2C(=O)CCC(c3ccccc3)C2=O)cc1)NC(=O)[C@@H]1CCC(=O)N1Cc1ccccc1 (stereo not given in full) | 0.99 | 184
O=C(O)[C@H](Cc1ccc(N2CCCC2=O)cc1)NC(=O)[C@@H]1CCC(=O)N1Cc1ccccc1 | 16 | 
O=C(O)[C@H](Cc1ccc(N2C(=O)CC(Cc3ccccc3)C2=O)cc1)NC(=O)[C@@H]1CCC(=O)N1Cc1ccccc1 (stereo not given in full) | 0.94 | 123
O=C(Nc1ccc(C[C@H](NC(=O)[C@@H]2CCC(=O)N2Cc2ccccc2)C(=O)O)cc1)c1c(Cl)cccc1Cl | 0.37 | 12
O=C(O)[C@H](Cc1ccc(N2C(=O)Cc3ccccc3C2=O)cc1)NC(=O)[C@@H]1CCC(=O)N1Cc1ccccc1 | 0.98 | 107
O=C(O)[C@H](Cc1ccc(N2C(=O)c3ccncc3C2=O)cc1)NC(=O)[C@@H]1CCC(=O)N1Cc1ccccc1 | 4.3 | 650
O=C(O)[C@H](Cc1ccc(N2C(=O)CC(c3ccc(O)cc3)C2=O)cc1)NC(=O)[C@@H]1CCC(=O)N1Cc1ccccc1 (stereo not given in full) | 2.6 | 420
O=C(O)[C@H](Cc1ccc(N2Cc3ccccc3C2=O)cc1)NC(=O)[C@@H]1CCC(=O)N1Cc1ccccc1 | 2.7 | 500
O=C(O)[C@H](Cc1ccc(N2C(=O)c3ccccc3C2=O)cc1)NC(=O)[C@@H]1CCC(=O)N1Cc1ccccc1 | 0.52 | 20
CC(C)CC1CC(=O)N(c2ccc(C[C@H](NC(=O)[C@@H]3CCC(=O)N3Cc3ccccc3)C(=O)O)cc2)C1=O (stereo not given in full) | 0.76 | 41
O=C(O)[C@H](Cc1ccc(N2C(=O)CC3(CCCC3)CC2=O)cc1)NC(=O)[C@@H]1CCC(=O)N1Cc1ccccc1 | 0.54 | 57
O=C(O)[C@H](Cc1ccc(N2C(=O)CCC2=O)cc1)NC(=O)[C@@H]1CCC(=O)N1Cc1ccccc1 | 3.2 | 286
